{"source": "patent US11191798B2", "about": "“Extracts of Andrographis paniculata, methods for preparation and use thereof” (NUTRITION SCIENCE PARTNERS LIMITED, priority 2016, dated 2021)", "key": {"[1]": {"system": "EGF", "test": "EGF mRNA expression in epithelial cell line HT29", "format": "cell-based, human", "conditions": "about 24 hours", "description": "(§1) Enhancement of EGF and FGF expression were investigated in a human HT-29 and T84 cell lines.\n(§2) Two adherent epithelial cell lines, HT29 and T84, were used in the assay. For sustaining cell culture, HT29 cells were incubated in cell culture dish with McCoy's 5a Medium containing 10% FBS, and T84 cells were incubated with DMEM/F-12 (1:1) medium containing 5% FBS. All cells were incubated at 37° C. with 5% CO2. Sub-culture was performed when cells reached 90% confluence.\n(§3) For the assay, the cells were trypsinized and suspended in culture medium. The cell density was determined and adjusted to 1×10^6 cells/mL. Then, the cells were seeded into a 96-well plate and incubated at 37° C. with 5% CO2 overnight.\n(§4) The two Andrographis paniculata extracts, Standard 1 and Example 1, were serially diluted in DMSO and further diluted in medium. Diluted solution was added into wells. The final concentrations for Standard 1 were: 300, 100, 30 and 10 μg/mL. The final concentrations for Example 1 were: 100, 30, 10 and 1 μg/mL. […]\n(§5) Total RNA was extracted using RNeasy 96 kit (QIAGEN) and cDNA was synthesized from RNA template using High Capacity cDNA RT kit (Applied Biosystems). Quantitative real-time PCR detection of gene expression was using SYBR Premix Ex Taq TM II (TakaRa). Expression of genes analyzed by q-PCR was normalized to GAPDH using the fold change (2^−ΔΔCT) method. […]"}, "[2]": {"system": "EGF", "test": "EGF mRNA expression in epithelial cell line T84", "format": "cell-based, human", "conditions": "about 24 hours", "description": "as §1, §2, §3, §4, §5"}, "[3]": {"system": "FGF1", "test": "FGF1 mRNA expression in epithelial cell T84 (Assay 5)", "format": "cell-based, human", "conditions": "about 24 hours", "description": "as §1, §2, §3, §4, §5"}, "[4]": {"system": "FGF2", "test": "FGF2 mRNA expression in epithelial cell T84 (Assay 5)", "format": "cell-based, human", "conditions": "about 24 hours", "description": "as §1, §2, §3, §4, §5"}, "[5]": {"system": "FGF1", "test": "FGF1 mRNA expression in human T84 cell line (Assay 6)", "format": "cell-based", "conditions": "about 24 hours", "description": "Enhancement of FGF1 expression of Example 7 and the four ingredients AND, NAND, DAND, and DDAND was investigated in human T84 cell line.\nThe adherent epithelial cell line T84 was used in the assay. For sustaining cell culture, T84 cells were incubated with DMEM/F-12 (1:1) medium containing 5% FBS at 37° C. with 5% CO2. Sub-culture was performed when cells reached 90% confluence.\nas §3\nThe two Andrographis paniculata extracts, Standard 1 and Example 7, and AND, NAND, DAND, DDAND, and the mixture of them (named as the mixture of 4 markers, wherein the amounts of AND, NAND, DAND, and DDAND were 69%, 11%, 5%, and 15%, respectively, by weight relative to the weight of the mixture) were serially diluted in DMSO and further diluted in medium. Diluted solution was added into wells. The final concentrations for Standard 1 were: 300 and 100 μg/mL. The final concentration for Example 7 was: 100 μg/mL. The final concentration for NAND, DAND and DDAND was 10 μg/mL and AND was 40 μg/mL. The final concentrations for mixture of 4 markers were: 100 and 30 μg/mL. The plate was incubated at 37° C. with 5% CO2 for about 24 hours. The supernatants were removed and 150 μL RLT buffer was added into each well. The plate was stored at −80° C. until RNA extraction.\nTotal RNA was extracted using RNeasy 96 kit (QIAGEN) and cDNA was synthesized from RNA template using High Capacity cDNA RT kit (Applied Biosystems). Quantitative real-time PCR detection of gene expression was using SYBR Premix Ex Taq TM II (TakaRa). Expression of genes analyzed by q-PCR was normalized to GAPDH using the fold change (2^−ΔΔCT) method. The formula used in the calculation is shown as follows: Fold=2^−ΔΔCT=2^−[(CT^test sample^−CT^test sample_GAPDH^)−(CT^minimum^−CT^minimum_GAPDH^)] where CTtest sample is the CT value of target gene in cells treated with the test samples; CTtest sample-GAPDH is the CT value of GAPDH gene in cells treated with the test samples; CTminimum is the CT value of target gene in cells treated without test samples, and CTminimum-GAPDH is the CT value of GAPDH gene in cells treated without test samples."}, "[6]": {"system": "DNBS-induced rat colitis", "test": "DNBS-induced rat colitis prophylactic model", "format": "in vivo, Wistar rats", "quoted_text": "Assay 7: The In Vivo Efficacy of Andrographis Extract in a DNBS-Induced Rat Colitis Prophylactic Model 1. Materials 1.1. Test Compounds and Formulation Methods • Test articles: Two Andrographis paniculata extracts, Example 10 used in Experiment 1 and Example 11 used in Experiment 2. • Control drugs: Standard 1; and Sulfasalazine (SASP), Sigma-Aldrich, Cat S0883.\nOral suspension of the test articles and Standard 1 were prepared as follows: the test articles and Standard 1 were respectively weighed and added into a 50 mL centrifuge tube. 0.5% sodium carboxymethylcellulose (0.5% CMC-Na) was added. Sonicate for 15 min to give suspensions with desired concentration. The fresh-made formulation was stored away from light, and homogenized thoroughly before use. The administration volume was 10 ml/kg.\nOral suspension of SASP was prepared as follows: SASP was weighed and added into a 50 mL centrifuge tube. 0.5% CMC-Na was added. Sonicate for 15 min to give 30 mg/mL suspension. The fresh-made formulation was stored away from light, and homogenized thoroughly before use. The administration volume was 10 ml/kg.\nMale Wistar rats, 110-130 g, were purchased from Shanghai SLAC Laboratory Animal Co. Ltd.\nWistar rats were randomized assigned. The fasting rats were anesthetized with 25 mg/kg Zoletil and 0.5 mg/kg xylazine. And colitis was induced by intracolonic administration of 10 mg or 12 mg DNBS dissolved in 0.25 mL of 30% ethanol (v/v). The animals in naive control group were instilled with 30% ethanol only.\n• Body weight: Body weights of animals were checked daily on and after grouping. • Diarrhea score: Stool consistency of the animals was monitored and scored daily from the 3rd day after the model induction. Evaluation criteria: 0=formed, 1=moist/sticky, 2=loose, 3=liquid. • Colon weight and length measurement: Rats were sacrificed 4 h post the last dosing on the 6th day. The abdomen was opened by a midline incision. Adhesion degree of colon and other organs was observed. The colon (from cecum end to the anus) was emptied of its content, rinsed with saline. The weight and length of the colon were measured, and then the colon ratio (colon weight/colon length) was calculated. • Histopathology analysis: Proximal colon with obvious ulcer was made into Swiss Rolls, fixed in 10% neutral formalin solution, dehydrated with xylene, embedded in paraffin, sectioned, and stained with hematoxylin and eosin (H&E). […] The severity of lesion was graded based on a semi-quantitative scale using the sum of scores of the following 10 evaluation indicators (see table 7).\nAll of the data were presented as mean±SD.\nBody weight data were analyzed with repeated-measures ANOVA analysis by GraphPad Prism 6.0 software. Fisher's Least Significant Difference (LSD) test was used to perform significance analysis. p value was calculated. *p<0.05 refers to significant difference between vehicle control group and each of the treated groups. **p<0.01 refers to extremely significant difference between vehicle control group and each of the treated groups.\nThe colon ratio inhibition of each animal was calculated by the following formula, wherein CW refers to colon weight, CL refers to colon length:\nThe statistical analysis of the data of colon length and colon ratio was performed by Graphpad Prism 6.0 software. Unpaired t test or Mann-Whitney test were applied to analyze the significance analysis between test article treated groups and vehicle treated group, based on the normality of the data."}, "[7]": {"conditions": "Experiment 1, 300 mg/kg PO, mean±SD"}}, "data": [{"smiles": "C=C1CC[C@@H]2[C@](C)(CO)[C@H](O)CC[C@@]2(C)[C@@H]1C/C=C1/C(=O)OC[C@H]1O", "note": "[AND, Andrographolide]", "values": [{"measurement": "mRNA expression of EGF in HT29 cells", "setting": "[1]", "result": "increased"}, {"measurement": "mRNA expression of EGF in T84 cells", "setting": "[2]", "result": "increased"}, {"measurement": "mRNA expression of FGF1 in T84 cells", "setting": "[3]", "result": "had no similar effect"}, {"measurement": "mRNA expression of FGF2 in T84 cells", "setting": "[4]", "result": "had no similar effect"}, {"measurement": "FGF1 up-regulation effect", "setting": "[5]; T84, 40 μg/mL", "result": "did not show similar FGF1 up-regulation effect"}]}, {"smiles": "C=C1CC[C@@H]2[C@](C)(CO)[C@H](O)CC[C@@]2(C)[C@@H]1CCC1=CCOC1=O", "note": "[DAND, 14-deoxyandrographolide]", "values": [{"measurement": "FGF1 up-regulation effect", "setting": "[5]; T84, 10 μg/mL", "result": "did not show similar FGF1 up-regulation effect"}]}, {"smiles": "C=C1CCC2C(C)(CO)C(O)CCC2(C)C1/C=C/C1=CCOC1=O", "note": "(stereo not shown) [DDAND, 14-Deoxy-11,12-dehydroandrographolide]", "values": [{"measurement": "FGF1 up-regulation effect", "setting": "[5]; T84, 10 μg/mL", "result": "did not show similar FGF1 up-regulation effect"}]}, {"smiles": "C=C1CC[C@@H]2[C@](C)(CO[C@@H]3O[C@H](CO)[C@@H](O)[C@H](O)[C@H]3O)CCC[C@@]2(C)[C@@H]1CCC1=CCOC1=O", "note": "[NAND, Neoandrographolide]", "values": [{"measurement": "FGF1 up-regulation effect", "setting": "[5]; T84, 10 μg/mL", "result": "did not show similar FGF1 up-regulation effect"}]}, {"smiles": "O=C(O)c1cc(/N=N/c2ccc(S(=O)(=O)Nc3ccccn3)cc2)ccc1O", "note": "[SASP, Sulfasalazine]", "values": [{"measurement": "colon histopathology findings", "setting": "[6]; 300 mg/kg/day, 8 samples", "result": "five samples showed severe mucosal erosion and inflammatory cell infiltration"}, {"measurement": "Colon ratio inhibition, %", "setting": "[6]; Experiment 1, 300 mg/kg PO", "result": 44.5, "unit": "%"}, {"measurement": "Colon ration CW/CL (%)", "setting": "[6]; [7]", "result": "0.0846 ± 0.0089", "unit": "%"}, {"measurement": "Crypt abscesses, histopathological score", "setting": "[6]; [7]", "result": "0.1 ± 0.4"}, {"measurement": "Degree of cellular infiltrate, histopathological score", "setting": "[6]; [7]", "result": "2.1 ± 0.8"}, {"measurement": "Degree of erosion/ulcer, histopathological score", "setting": "[6]; [7]", "result": "1.6 ± 1.4"}, {"measurement": "Degree of mucosa edema, histopathological score", "setting": "[6]; [7]", "result": "1.6 ± 0.9"}, {"measurement": "Epithelium hyperplasia, histopathological score", "setting": "[6]; [7]", "result": "0.8 ± 0.5"}, {"measurement": "Goblet cell depletion, histopathological score", "setting": "[6]; [7]", "result": "0.9 ± 0.4"}, {"measurement": "Muscle thickening, histopathological score", "setting": "[6]; [7]", "result": "1.4 ± 0.9"}, {"measurement": "Severe destruction for erosion (%), histopathological score", "setting": "[6]; [7]", "result": "0.8 ± 0.7"}, {"measurement": "Severely affected in infiltration (%), histopathological score", "setting": "[6]; [7]", "result": "1.6 ± 0.7"}, {"measurement": "The sum of score (colon histopathology)", "setting": "[6]; [7]", "result": "12.5 ± 6.3"}, {"measurement": "Total area affected (%), histopathological score", "setting": "[6]; [7]", "result": "1.6 ± 0.7"}]}]}
